Results as given in US10647687B2, “Spiropyrazine derivatives as inhibitors of non-apoptotic regulated cell-death” (Helmholtz Zentrum München Deutsches Forschungszentrum für …, priority 2014, dated 2020).
Like-named read-outs stand apart in the source and are kept apart here.

Experiments:
[1] = tested on: mouse hippocampal cell line (Ht22); experiment: Inhibition of glutamate-induced non-apoptotic cell death (Ht22/GLU, Example B.2); assay type: cell-based
Text: Glutamate toxicity is conferred on cells from the mouse hippocampal cell line (Ht22) by inhibition of the cysteine/glutamate antiporter, System xc-, leading to impaired cysteine uptake and subsequent GSH depletion. This model is frequently used for mimicking glutathione depletion following oxidative stress in stroke, brain trauma and other neurodegenerative diseases and cellular conditions following ischemia (for example: van Leyen et al, J. Neurochem. 92:824-30 (2005)).
Compounds disclosed herein were evaluated for their ability to promote cell survival upon administration of a lethal dose of glutamate (GLU) to the cell-culture medium.
Briefly, Ht22cells (ATCC or Invitrogen) were propagated DMEM supplemented with 10% FBS/1% Penicillin-Streptomycin, and then seeded onto 96-well plates at a concentration of 2,000 cells/well in 100 μL of MEDIA, simultaneously with glutamate (Sigma Aldrich) to a final concentration of 5 mM, together with increasing concentrations of the compound to be tested (0.5 pM to 100 μM), and the plates incubated at 37° C./5% CO2 for 72 hours. Compound dilutions were prepared from 10 mM stocks dissolved in DMSO and diluted in media. Cells treated with glutamate alone were used as negative control and alpha-tocopherol (Sigma Aldrich) was used as positive control. Compound concentrations were tested in triplicate. After incubation, cell survival was detected and quantified as described in Example B.1.

[2] = tested on: Pfa1 cells; experiment: Inhibition of non-apoptotic cell death after tamoxifen-induced GPx4 knockout (Pfa1/TAM, Example B.4); assay type: cell-based, mouse
Text: To combat high intracellular ROS levels, mammalian cells have evolved an intricate network of ROS scavenging in cells, in which the thioredoxin and glutathione (GSH) dependent systems prevail. […] Knockout of GPx4 in neurons causes massive neurodegeneration in cortical, cerebellar and hippocampal neurons underscoring the high relevance of ROS-induced cell death signaling in the brain. Briefly, immortalised fibroblasts from these mice were made to contain tamoxifen-inducible CreERT2, which catalyzes the functional ablation of both copies of GPx4 and resulting in a complete knockout of GPx4, a massive ROS burst, and cell death in cell culture. These cells (Pfa1 cells) were used to characterize compounds disclosed herein, whereby tamoxifen (TAM) was given on day 0 along with the compound under test, and 72 hours later cell survival was evaluated using AlamarBlue.

[3] = Cellular toxicity, Pfa1 cells without TAM (Example B.5); assay type: cell-based; conditions: mouse, read-out: TC50 (the source's name)
Text: An estimate of the toxicity for compounds disclosed herein was obtained by using the same assay as described in Example B.4, but without the addition of TAM. […] Such TC50 values obtained for certain compounds disclosed herein, together with an approximate therapeutic window (estimated by dividing each TC50 by the corresponding IC50 determined from example B.4) are shown in Table 3 and Table 4.

[4] = tested on: human neuroblastoma cell line SH-SY5Y; experiment: Inhibition of BSO-induced non-apoptotic cell death (SH-SY5Y/BSO, Example B.1); assay type: cell-based; conditions: BSO-induced non-apoptotic cell death, SH-SY5Y cells, 50 μM BSO, 72 hours
Text: L-Buthionine sulfoximine (BSO) is a well-known glutathione (GSH) depletory, which inhibits gamma-glutamyl-cysteine-synthetase, the enzyme catalyzing the rate-limiting step in GSH biosynthesis. The human neuroblastoma cell line SH-SY5Y is sensitive to BSO-induced intracellular glutathione depletion, which causes high levels of reactive oxygen species (ROS) and cellular stress mimicking cellular conditions following ischemia (cf., e.g., Yamada et al., Neurochem. Int. 59:1003-9 (2011)).
Compounds disclosed herein were evaluated for their ability to promote cell survival upon administration of a lethal dose of BSO to cell-culture medium. […] After incubation, cell survival was detected using the live/dead cell assay AquaBluer™ (MultiTarget Pharmaceuticals) and quantified using a fluorescence plate reader (excitation filter: 530-560 nm/emission filter: 590 nm) (SpectraMax M4; Molecular Devices). Fluorescence data so obtained was normalised to the percentage of surviving cells and IC50 values calculated using the GraphPad Prism (GraphPad Software, Inc) software package.

[5] = tested on: SH-SY5Y cells; experiment: Specificity: TNF-alpha-induced apoptosis in SH-SY5Y cells (Example B.3); assay type: cell-based, human; conditions: compound 1 μM, TNF-alpha 10 ng/mL, FIG. 1
Experimental: SH-SY5Y cells were propagated and seeded in 96-well plates, together with compound N-1, N-2, N-10 of Table 1-N (FIG. 1A), compound O/S-6 or O/S-3 of Table 1-O/S (FIG. 1B), or compound C-12, C-91, or C-205 of Table 1-C (FIG. 1C) (each 1 μM) and TNF-alpha was added (final concentration: 10 ng/mL) to induce apoptosis. The apoptosis and pan-caspase inhibitor z-vad (final concentration: 50 μM) and the necroptosis inhibitor Necrostatin-1 (Nec-1; final concentration: 5 μM) were used for comparison. Control wells were established with vehicle only (DMSO), with and without treatment with TNF-alpha to induce apoptosis. Cells were incubated, and cell survival was detected and quantified. Percentage cell survival after TNF-alpha-induced apoptosis is shown (error bars indicate standard deviation (SD)).
Briefly, SH-SY5Y cells were propagated and seeded in 96-well plates, together with the compound to be tested (1 μM), generally as described in Example B.1, except they were seeded at 1,000 cell/well and instead of BSO, TNF-alpha (Invitrogen) was added to a final concentration of 10 ng/mL to induce apoptosis. The apoptosis and pan-caspase inhibitor Z-VAD-fink (Enzo Life Science; final concentration 50 μM) and the necroptosis inhibitor Necrostatin-1 (Nec-1; Enzo Life Science; final concentration 5 μM) were used for comparison. Control wells were established with vehicle only (DMSO), with and without treatment with TNF-alpha to induce apoptosis. Cells were incubated, and cell survival was detected and quantified as described in Example B.1.

[6] = HT-22, 5 mM glutamate, 72 hours, cell survival, read-out: Ht22/GLU
[7] = Mus musculus, tamoxifen on day 0, cell survival after 72 hours
[8] = * not tested at higher concentrations
[9] = Mus musculus, methylated analogues of C-2
[10] = HT-22, 72 h, read-out: Ht22/GLU [μM]
[11] = HT-22, glutamate-induced non-apoptotic cell death, Ht22 cells, read-out: Ht22/GLU
[12] = Mus musculus, tamoxifen-induced GPx4 knockout, Pfa1 cells

Row | Structure (SMILES) | IC50 [1, 6] | IC50 [2, 7] | CC50 [3, 8] | also measured
1 | c1ccc2c(c1)N=C(NCc1ccncc1)C1(CCCCC1)N2 [D-24] | < 5 µM | < 5 µM | > 50 µM | 
2 | C#CCCCCCCCCC(=O)N1CCC2(CC1)Nc1ccccc1N=C2NCc1cccc(Cl)c1 [F-25] | < 0.2 µM | < 0.2 µM | 10 to 20 µM | 
3 | CC(C)(C)NC1=Nc2ccccc2NC12CCOCC2 [D-15] | < 5 µM | < 5 µM | 50 to 100 µM | 
4 | Cc1cc(CNC2=Nc3ccccc3NC23CCCCC3)on1 [D-17] | < 2 µM | < 5 µM | > 50 µM | 
5 | C#CCCCCCCCCC(=O)N1CCC2(CC1)Nc1cc(Cl)c(Cl)cc1N=C2NCc1cccc(Cl)c1 [F-26] | < 0.2 µM | < 0.2 µM | 10 to 20 µM | 
6 | c1ccc2c(c1)N=C(NCCc1c[nH]c3ccccc13)C1(CCNCC1)N2 [D-6] | < 0.5 µM | < 0.1 µM | 5 to 10 µM | 
7 | Clc1cccc(CNC2=Nc3ccccc3NC23CCCCC3)c1 [C-2] |  |  |  | IC50 [2, 9]: < 0.01 µM
8 | c1ccc(CNC2=Nc3ccccc3NC23CC2CCC(C3)N2)cc1 [D-9] |  | < 0.5 µM | 5 to 10 µM | IC50 [1, 10]: < 0.5 µM
9 | c1ccc2c(c1)CCCC2NC1=Nc2ccccc2NC12CCNCC2 [D-7] | < 0.2 µM | < 0.1 µM | 10 to 20 µM | 
10 | Clc1cccc(CNC2=Nc3ncccc3NC23CCCCC3)c1 [D-10] | < 5 µM | < 5 µM | 1 to 5 µM | 
11 | Clc1cccc(CNC2=Nc3ccccc3NC23CCCNCC3)c1 (stereo not drawn) [N-185] |  |  |  | IC50 [1, 11]: < 0.5 µM; IC50 [2, 12]: < 0.2 µM; CC50 ([3]; cellular toxicity): 1 to 2 µM; IC50 [4]: < 0.05 µM
12 | Clc1cc2c(cc1Cl)NC1(CCCCC1)C(NCc1cccnc1)=N2 [D-19] | < 0.05 µM | < 0.5 µM | 10 to 50 µM | 
13 | CN1CCC2(CC1)Nc1cc(Cl)c(Cl)cc1N=C2NCc1cccc(Cl)c1 [F-24] | < 0.02 µM | < 0.05 µM | 0.2 to 0.5 µM | 
14 | CC(C)(C)NC1=Nc2ccccc2NC12CCSCC2 [D-16] | < 1 µM | < 1 µM | > 5 µM | 
15 | c1ccc2c(c1)N=C(NCc1nccs1)C1(CCCCC1)N2 [D-20] | < 2 µM | < 5 µM | > 50 µM | 
16 | c1ccc2c(c1)CCC2NC1=Nc2ccccc2NC12CCCCC2 [D-2] | < 1 µM | < 2 µM | 10 to 50 µM | 
17 | Clc1cccc(CNC2=Nc3cc(Cl)ncc3NC23CCCCC3)c1 [D-11] | < 5 µM | < 5 µM | 10 to 50 µM | 
18 | CN1c2ccccc2N=C(NCc2cccc(Cl)c2)C12CCCCC2 [C-2-Me-I] |  |  |  | IC50 ([2]; methylated analogues of C-2): > 10 µM

Row | Structure (SMILES) | IC50 [1, 6] | IC50 [2, 7] | CC50 [3, 8] | also measured
19 | c1coc(CNC2=Nc3ccccc3NC23CCCCC3)c1 [D-23] | < 5 µM | < 5 µM | > 50 µM | 
20 | Clc1cc2c(cc1Cl)NC1(CCCCC1)C(NCc1cccs1)=N2 [D-21] | < 0.2 µM | < 0.5 µM | 5 to 10 µM | 
21 | Clc1cccc(CNC2=Nc3ccccc3NC23CC2CCC(C3)N2)c1 [D-8] |  | < 0.05 µM | 2 to 5 µM | IC50 [1, 10]: < 0.05 µM
22 | c1ccc2c(c1)N=C(NCc1cncs1)C1(CCCCC1)N2 [D-22] | < 5 µM | < 5 µM | > 50 µM | 
23 | c1csc(CNC2=Nc3ccccc3NC23CCNCC3)c1 [D-181] | < 0.1 µM | < 0.5 µM | 20 to 50 µM | 
24 | Clc1ccccc1CNC1=Nc2ccccc2NC12CCNCC2 [N-1] |  |  |  | Percentage cell survival after TNF-alpha-induced apoptosis [5]: Non-inhibition of apoptotic cell-death
25 | CN1/C(=N/Cc2cccc(Cl)c2)C2(CCCCC2)N(C)c2ccccc21 [C-2-2Me] |  |  |  | IC50 [2, 9]: > 10 µM
26 | c1ccc2c(c1)CCC2NC1=Nc2ccccc2NC12CCNCC2 [D-5] | < 0.2 µM | < 0.1 µM | 5 to 10 µM | 
27 | c1ccc2c(c1)CCC2NC1=Nc2ccccc2NC12CCOCC2 [D-3] | < 5 µM | < 2 µM | 50 to 100 µM | 
28 | CCOC(=O)c1ccc2c(c1)N=C(NC1CCCCC1)C1(CCCCC1)N2 [D-14] | < 0.5 µM | < 1 µM | 10 to 50 µM | 
29 | c1ccc2c(c1)CCCC2NC1=Nc2ccccc2NC12CCCCC2 [D-4] | < 0.5 µM | < 0.2 µM | 20 to 50 µM | 
30 | Clc1ccc(CNC2=Nc3ccccc3NC23CCOCC3)cc1 [O/S-3] |  |  |  | Percentage cell survival after TNF-alpha-induced apoptosis [5]: Non-inhibition of apoptotic cell-death
31 | CC1CCC2(CC1)Nc1ccccc1N=C2NCc1ccccc1Cl (stereo not drawn) [C-91] |  |  |  | Percentage cell survival after TNF-alpha-induced apoptosis [5]: Non-inhibition of apoptotic cell-death
32 | Clc1ccccc1CNC1=Nc2ccccc2NC12CCCCCC2 [C-205] |  |  |  | Percentage cell survival after TNF-alpha-induced apoptosis [5]: Non-inhibition of apoptotic cell-death
33 | CC(C)CCNC1=Nc2ccccc2NC12CCCCCC2 [D-1] | < 1 µM | < 2 µM | 10 to 50 µM | 
34 | c1csc(CNC2=Nc3ccccc3NC23CCCCC3)c1 [D-12] | < 1 µM | < 5 µM | 10 to 50 µM | 
35 | c1cncc(CNC2=Nc3ccccc3NC23CCCCC3)c1 [D-13] | < 5 µM | < 5 µM | 50 to 100 µM | 
36 | O=S1(=O)CCC2(CC1)Nc1ccccc1N=C2NCc1cccc(Cl)c1 [O/S-370] |  |  |  | IC50 [1, 11]: < 5 µM; IC50 [2, 12]: < 2 µM; CC50 ([3]; cellular toxicity): 50 to 100 µM; IC50 [4]: < 1 µM
